These results are taken from ChEMBL document CHEMBL5584331, “Methyl-Transferase-Like Protein 16 (METTL16): The Intriguing Journey of a Key Epitranscriptomic Player Becoming an Emerging Biological Target” (J Med Chem, 2024).

Molecules are shown by their SMILES. pIC50, pKd: −log10 of the molar value.

One experiment has as its system NOMO-1. The experiment is described as follows: Antiproliferative activity against human NOMO-1 cells assessed as reduction in cell viability incubated for 48 hrs by MTT assay. The conditions noted are these: NOMO-1, 48 h. It counts as functional, cell-based. On the technique in general: Tetrazolium dyes change colour on reduction, which living cells bring about.

Experiment [1] concerns the target N6-adenosine-methyltransferase catalytic subunit (Homo sapiens, UniProt Q86U44). Nature of the experiment: Binding affinity to METTL3 (unknown origin) assessed as dissociation constant.

Sequence of N6-adenosine-methyltransferase catalytic subunit (Q86U44 whole entry): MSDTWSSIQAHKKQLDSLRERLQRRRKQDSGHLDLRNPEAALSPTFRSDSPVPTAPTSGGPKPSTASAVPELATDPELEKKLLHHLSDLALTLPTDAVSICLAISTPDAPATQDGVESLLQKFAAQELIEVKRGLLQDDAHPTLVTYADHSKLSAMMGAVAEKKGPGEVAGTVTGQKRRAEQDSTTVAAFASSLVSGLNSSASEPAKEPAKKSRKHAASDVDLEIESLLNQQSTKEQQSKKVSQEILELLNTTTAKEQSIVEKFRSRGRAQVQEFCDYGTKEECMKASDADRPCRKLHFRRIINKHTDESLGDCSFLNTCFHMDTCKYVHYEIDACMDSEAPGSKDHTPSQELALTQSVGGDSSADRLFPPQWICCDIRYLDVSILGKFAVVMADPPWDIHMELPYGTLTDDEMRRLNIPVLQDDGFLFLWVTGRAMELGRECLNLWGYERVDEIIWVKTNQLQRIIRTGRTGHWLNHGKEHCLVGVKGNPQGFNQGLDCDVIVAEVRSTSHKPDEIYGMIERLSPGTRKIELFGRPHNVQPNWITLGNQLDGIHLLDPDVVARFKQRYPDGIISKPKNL

As for `N#Cc1ccc(Cn2ccc3c4c(N)nc(N)nc4ccc32)cc1`, the negative logarithm of the IC50 (pIC50) in the experiment on NOMO-1 is 7.69.

Turning to `C/C(=N\NC(N)=S)c1ccc(F)cc1`, in experiment [1], the pKd is 5.55.

As for `C/C(=N\N=C(/N)S)c1ccccc1` [PHENYL(METHYL)THIOSEMICARBAZONE], the pKd in experiment [1] was 5.48.

Broadly, the pIC50 is −log10 of the IC50, conventionally taken in molar units. A word on the pKd: it is the Kd on a negative log10 scale, so that one unit is a factor of ten.
